Assay results: patent US10208011B2, “Benzothiophene estrogen receptor modulators” (G1 Therapeutics, Inc., priority 2017, dated 2019)

How the values were obtained:
[1] = molecular target: estrogen receptor α in MCF7 cells (Homo sapiens (Human), UniProt P03372); experiment: Estrogen Receptor (ER) Degradation Assay (In-Cell Western); assay type: cell-based; settings: for IC50: 24 hours, In-Cell Western; for % Estrogen Receptor Remaining: vehicle set to 100%
Procedure: A screening strategy was implemented utilizing an In-Cell Western assay to measure their ability to degrade the estrogen receptor in vitro. MCF7 cells, which are estrogen receptor positive, were plated at a cell density of […] into black walled clear bottom 96-well plates. Cells were incubated in phenol red free Dulbecco's Modified Eagle Media (DMEM) supplemented with 8% charcoal-stripped fetal bovine calf serum for 24 hours in a humidified 37° C. incubator. Concentrated stock compounds were diluted to 10× in complete media. Compounds were added to the plated cells in a dose-dependent manner ranging from 1E-12 to 1E-05 M and incubated for an additional 24 hours at 37° C. Culture medium was removed from the culture plates by gentle inversion. Cells were fixed in 4% paraformaldehyde in 1× phosphate buffered saline-calcium magnesium free (PBS-CMF) for 15 minutes at room temperature, washed 3 times for 5 minutes each in 1×PBS-CMF. Cells were permeabilized in immunofluorescence (IF) blocking buffer (Cell Signaling #12411) containing 0.3% Triton X100. Cells were washed 3 times for 5 minutes each in 1×PBS-CMF and incubated in estrogen receptor α (D6R2W) rabbit primary antibody (Cell Signaling #13258) diluted 1:300 in IF antibody dilution buffer (Cell Signaling #12378). Cells were washed 3 times for 5 minutes each in 1×PBS-CMF and stained with goat anti-rabbit (Biotium #CF770) secondary antibody diluted 1:2000 in IF antibody dilution buffer and normalizing stain CellTag 700 diluted 1:500 (Licor #926-41090). ER protein expression was assessed by the Licor Odyssey CLx imaging system using Image Studio v5.2. Data is processed utilizing GraphPad Prism 7 by subtracting background from the vehicle and setting the vehicle to 100% ER activity, followed by comparing treated samples to vehicle. This procedure was used to produce the graph in FIG. 2, FIG. 3, FIG. 4, FIG. 5, FIG. 6, FIG. 7, and FIG. 8.
(§1) In the below table for the Estrogen Receptor Degradation Assay and the Human ERα Reporter Assay: […]

[2] = molecular target: human estrogen receptor (ERα) (Homo sapiens (Human), UniProt P03372); experiment: Human ERα Reporter Assay (Indigo Biosciences); assay type: cell-based; settings: antagonist mode, 17β-estradiol 8E-10 M, 24 hours
human estrogen receptor (ERα), sequence (P03372 whole entry): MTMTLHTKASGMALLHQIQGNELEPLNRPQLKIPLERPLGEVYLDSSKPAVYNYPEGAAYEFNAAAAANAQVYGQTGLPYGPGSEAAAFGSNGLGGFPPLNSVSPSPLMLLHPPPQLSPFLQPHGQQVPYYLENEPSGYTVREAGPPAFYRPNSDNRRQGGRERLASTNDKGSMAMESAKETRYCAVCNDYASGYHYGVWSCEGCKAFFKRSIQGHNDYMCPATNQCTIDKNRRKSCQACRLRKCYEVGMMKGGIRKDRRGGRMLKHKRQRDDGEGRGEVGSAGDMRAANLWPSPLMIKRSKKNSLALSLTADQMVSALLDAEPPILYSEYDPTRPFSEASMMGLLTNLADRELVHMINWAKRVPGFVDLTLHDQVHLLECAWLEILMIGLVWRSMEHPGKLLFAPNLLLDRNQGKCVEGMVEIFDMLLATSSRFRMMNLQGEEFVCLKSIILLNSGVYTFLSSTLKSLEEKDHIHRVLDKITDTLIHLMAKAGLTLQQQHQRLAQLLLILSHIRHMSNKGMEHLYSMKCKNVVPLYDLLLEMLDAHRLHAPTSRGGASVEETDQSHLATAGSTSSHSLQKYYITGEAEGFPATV
Procedure: All reagents used in this assay was supplied in the Human ERα Reporter Assay by Indigo Biosciences # IB00401. In an effort to screen selective estrogen receptor degraders (SERDs), the Human ERα Reporter Assay, supplied by Indigo Biosciences, was utilized to quantify antagonist functional activity against the human estrogen receptor. Reporter cells were thawed at 37° C. and added to pre-warmed to 37° C. cell recovery medium (CRM). Stock concentration of 17β-estradiol was serially diluted in CRM. Diluted 17β-estradiol was added to CRM containing reporter cells resulting in a working concentration of 1.6 nM (2×). Cells plus 17β-estradiol were dispensed in a kit-supplied white walled 96-well plate. Concentrated stocks of test compounds were diluted to 2× working concentrations in cell screening medium (CSM). 2× concentrated compounds were added to the plated cells in a dose-dependent manner resulting in a final concentration range of 1E-11 to 1E-5 M and a final 17β-estradiol concentration of 8E-10 M. Assay plates were incubated for 24 hours in a humidified 37° C. incubator. Culture medium was removed from the assay plates by inversion. Detection substrate and buffer was warmed to room temperature, mixed thoroughly, and immediately added to the assay plates. Assay plates were incubated for 15 minutes at room temperature protected from light. Luminescence was measured in a Synergy HTX luminescence plate reader. Data is processed utilizing GraphPad Prism 7 by graphing the relative light units measured at each compound concentration. This procedure was used to produce the graph in FIG. 1, FIG. 9, FIG. 10, FIG. 11, FIG. 12, FIG. 13, and FIG. 14.
as §1

estrogen receptor α in MCF7 cells, sequence (P03372 whole entry): as above

Row | IC50 [1] [nM] | IC50 [2] [nM] | SMILES | % Estrogen Receptor Remaining [1]
1 | < 1000 | < 1000 | Cc1cc(F)cc(C)c1C(=O)c1sc2cc(O)ccc2c1Oc1ccc(N2CCCCC2)cc1 [Compound 101, (4-fluoro-2,6-dimethylphenyl)(6-hydroxy-3-(4-(piperidin-1-yl)phenoxy)benzo[b]thiophen-2-yl)methanone] | *** (*** denotes 41-70% Estrogen Receptor remaining)
2 | < 1000 | < 1000 | CCC(C)NCCc1ccc(Oc2c(C(=O)c3c(C)cc(F)cc3C)sc3cc(O)ccc23)cc1 (stereo not drawn) [Compound 111, (3-(4-(2-(sec-butylamino)ethyl)phenoxy)-6-hydroxybenzo[b]thiophen-2-yl)(4-fluoro-2,6-dimethylphenyl)methanone] | **** (**** denotes 0-40% Estrogen Receptor remaining)
3 | < 1000 | < 1000 | CCC(CC)NCCc1ccc(Oc2c(C(=O)c3c(C)cc(F)cc3C)sc3cc(O)ccc23)cc1 [Compound 109, (4-fluoro-2,6-dimethylphenyl)(6-hydroxy-3-(4-(2-(pentan-3-ylamino)ethyl)phenoxy)benzo[b]thiophen-2-yl)methanone] | *** (*** denotes 41-70% Estrogen Receptor remaining)
4 | < 1000 | < 50000 | Cc1cc(F)cc(C)c1C(=O)c1sc2cc(O)ccc2c1-c1ccc(OCCN2CC(CF)C2)cc1 [Compound 120, (4-f1uoro-2,6-dimethylphenyl)(3-(4-(2-(3-(fluoromethyl)azetidin-1-yl)ethoxy)phenyl)-6-hydroxybenzo[b]thiophen-2-yl)methanone] | *** (*** denotes 41-70% Estrogen Receptor remaining)
5 | < 1000 | < 1000 | Cc1cc(F)cc(C)c1C(=O)c1sc2cc(O)ccc2c1Oc1ccc(N2CCCCCC2)cc1 [Compound 102, (3-(4-(azepan-1-yl)phenoxy)-6-hydroxybenzo[b]thiophen-2-yl)(4-fluoro-2,6-dimethylphenyl)methanone] | *** (*** denotes 41-70% Estrogen Receptor remaining)
